Reference: patent US20250073255A1, “USE OF FA-TYPE LIPID COMPOUNDS IN PREPARATION OF NUCLEIC ACID DELIVERY REAGENT AND RELATED PRODUCT” (BEIJING BAISHIKANG PHARMACEUTICAL TECHNOLOGY (BSJPHARMA) …, priority 2021, published 2025)

System: C57BL/6 male mice
Test: In vivo delivery study of lipid nucleic acid mixture (oral gavage, RT-qPCR of PGY-sRNA-26 in tissues)
Set-up: species or system mouse
Conditions: for oral delivery of single-stranded sRNA nucleic acids into mouse blood / oral delivery of single-stranded sRNA nucleic acids into mouse brain tissue / oral delivery of single-stranded sRNA nucleic acids into mouse femur / oral delivery of single-stranded sRNA nucleic acids into mouse heart tissue / oral delivery of single-stranded sRNA nucleic acids into mouse intestinal tissue / oral delivery of single-stranded sRNA nucleic acids into mouse kidney tissue / oral delivery of single-stranded sRNA nucleic acids into mouse liver tissue / oral delivery of single-stranded sRNA nucleic acids into mouse lung tissue / oral delivery of single-stranded sRNA nucleic acids into mouse pancreatic tissue / oral delivery of single-stranded sRNA nucleic acids into mouse spleen tissue / oral delivery of single-stranded sRNA nucleic acids into mouse stomach tissue: 100 μg lipid:10 nmol PGY-sRNA-26, sampled after 12 hours; for oral delivery of single-stranded sRNA nucleic acids into mouse heart tissue: vs free uptake group; for oral delivery of single-stranded sRNA nucleic acids into mouse intestinal tissue: intestine; for oral delivery of single-stranded sRNA nucleic acids into mouse pancreatic tissue: pancreas; for overall delivery efficacy: delivering nucleic acids into each tissue and blood tested: 100 μg lipid:10 nmol PGY-sRNA-26, all tissues and blood tested
In short: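 Lipid (100 μg) and 10 nmol 3'-methylated single-stranded PGY-sRNA-26 were heated at 90 °C for 15 min, then given by oral gavage to mice fasted 12 h. Controls were saline and free sRNA. Blood and tissues were taken at 12 h, and levels were measured by stem-loop RT-qPCR relative to U6.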

SMILES	oral delivery of single-stranded sRNA nucleic acids into mouse blood	oral delivery of single-stranded sRNA nucleic acids into mouse brain tissue	oral delivery of single-stranded sRNA nucleic acids into mouse femur	oral delivery of single-stranded sRNA nucleic acids into mouse heart tissue	oral delivery of single-stranded sRNA nucleic acids into mouse intestinal tissue	oral delivery of single-stranded sRNA nucleic acids into mouse kidney tissue	oral delivery of single-stranded sRNA nucleic acids into mouse liver tissue	oral delivery of single-stranded sRNA nucleic acids into mouse lung tissue	oral delivery of single-stranded sRNA nucleic acids into mouse pancreatic tissue	oral delivery of single-stranded sRNA nucleic acids into mouse spleen tissue	oral delivery of single-stranded sRNA nucleic acids into mouse stomach tissue	overall delivery efficacy: delivering nucleic acids into each tissue and blood tested
CCCCCC/C=C\CCCCCCCC(=O)OC(CC)C(C)CCC (stereo not drawn) [Lipid 827, 4-methylheptan-3-yl (Z)-hexadec-9-enoate]	can effectively orally deliver	can effectively orally deliver	can effectively orally deliver	can effectively orally deliver	can effectively orally deliver	can effectively orally deliver	can effectively orally deliver	can effectively orally deliver	can effectively orally deliver	can effectively orally deliver	can effectively orally deliver	–
CCCCCC/C=C\CCCCCCCC(=O)OCCCCCCCCCCCCCCCCC [Lipid 818, heptadecyl (Z)-hexadec-9-enoate]	can effectively orally deliver	can effectively orally deliver	can effectively orally deliver	can effectively orally deliver	can effectively orally deliver	can effectively orally deliver	can effectively orally deliver	can effectively orally deliver	can effectively orally deliver	can effectively orally deliver	can effectively orally deliver	–
CCCCC/C=C\C/C=C\CCCCCCCCOC(=O)CCCCCCCCCCCCCCC [Lipid 804, [(9Z,12Z)-octadeca-9,12-dienyl] hexadecanoate]	can effectively orally deliver	can effectively orally deliver	can effectively orally deliver	can effectively orally deliver	can effectively orally deliver	can effectively orally deliver	can effectively orally deliver	can effectively orally deliver	can effectively orally deliver	can effectively orally deliver	can effectively orally deliver	–
CC/C=C/CCO [Lipid 526]	can effectively orally deliver	can effectively orally deliver	can effectively orally deliver	can effectively orally deliver	can effectively orally deliver	can effectively orally deliver	can effectively orally deliver	can effectively orally deliver	–	can effectively orally deliver	can effectively orally deliver	best delivery efficacy
CCCCC/C=C\C/C=C\C/C=C\C/C=C\CCCC(=O)NCCN(CC)CC [Lipid 810, (5Z,8Z,11Z,14Z)-N-[2-(diethylamino)ethyl]icosa-5,8,11,14-tetraenamide]	can effectively orally deliver	can effectively orally deliver	can effectively orally deliver	can effectively orally deliver	can effectively orally deliver	can effectively orally deliver	can effectively orally deliver	can effectively orally deliver	can effectively orally deliver	can effectively orally deliver	can effectively orally deliver	best delivery efficacy
O=C(O)C[C@H]1CCC(=O)[C@@H]1C/C=C\CCO [Lipid 543]	can effectively orally deliver	can effectively orally deliver	can effectively orally deliver	can effectively orally deliver	can effectively orally deliver	can effectively orally deliver	can effectively orally deliver	can effectively orally deliver	–	can effectively orally deliver	can effectively orally deliver	best delivery efficacy
CCCCCCCCCCCCCCCO [Lipid 609, pentadecan-1-ol]	–	can effectively orally deliver	can effectively orally deliver	can effectively orally deliver	–	can effectively orally deliver	can effectively orally deliver	can effectively orally deliver	–	–	can effectively orally deliver	–
CCCCC/C=C\C/C=C\CCCCCCCC(=O)OC(CC)C(C)CCC (stereo not drawn) [Lipid 828, 4-methylheptan-3-yl (9Z,12Z)-octadeca-9,12-dienoate]	can effectively orally deliver	can effectively orally deliver	can effectively orally deliver	can effectively orally deliver	can effectively orally deliver	can effectively orally deliver	can effectively orally deliver	can effectively orally deliver	can effectively orally deliver	can effectively orally deliver	can effectively orally deliver	–
N[C@H](CCCC(=O)O)C(=O)O [Lipid 625, (2R)-2-aminohexanedioic acid]	can effectively orally deliver	can effectively orally deliver	can effectively orally deliver	can effectively orally deliver	can effectively orally deliver	can effectively orally deliver	can effectively orally deliver	can effectively orally deliver	–	can effectively orally deliver	can effectively orally deliver	best delivery efficacy
